In patent publication US20090118286A1, “Heterobicyclic Acrylamides” (Bayer Cropscience AG, priority 2005, published 2009):
Where two headings read alike, the source gives them in different places.

Key:
Sphaerotheca fuliginea = experiment: Sphaerotheca test (cucumber)/protective; format: in vivo; settings: application rate 500 ppm, protective, evaluation 7 days after inoculation
Protocol: [table] To produce a suitable preparation of active compound, 1 part by weight of active compound is mixed with the stated amounts of solvent and emulsifier, and the concentrate is diluted with water to the desired concentration. To test for protective activity, young cucumber plants are sprayed with the preparation of active compound at the stated application rate. 1 day after the treatment, the plants are inoculated with a spore suspension of Sphaerotheca fuliginea. The plants are then placed in a greenhouse at 70% relative atmospheric humidity and a temperature of 23° C. Evaluation is carried out 7 days after the inoculation. 0% means an efficacy which corresponds to that of the control, whereas an efficacy of 100% means that no infection is observed.

[1] = log P determination by HPLC (EEC Directive 79/831 Annex V.A8, gradient method); format: physicochemical; settings: HPLC, gradient method, acetonitrile/0.1% strength aqueous phosphoric acid or formic acid
[2] = test system: larvae of the mustard beetle (Phaedon cochleariae); experiment: Phaedon test, PHAECO spray treatment; format: in vivo; settings: foliar, 168 h, 500 g a. i./ha, spray treatment of Chinese cabbage leaf discs, 7 d, read-out: % 7 d (effect in %, beetle larvae killed)
Protocol: (§1) [table] To produce a suitable preparation of active compound, 1 part by weight of active compound is mixed with the stated amounts of solvents and emulsifier, and the concentrate is diluted with emulsifier-containing water to the desired concentration. Discs of Chinese cabbage leaves (Brassica pekinensis) are sprayed with a preparation of active compound of the desired concentration and, after drying, populated with larvae of the mustard beetle (Phaedon cochleariae). After the desired period of time, the effect in % is determined. 100% means that all beetle larvae have been killed; 0% means that none of the beetle larvae have been killed.

[3] = test system: caterpillars of the army worm (Spodoptera frugiperda); experiment: Spodoptera frugiperda test, SPODFR spray treatment; format: in vivo; settings: foliar, 168 h, 500 g a. i./ha, spray treatment of maize leaf discs, 7 d, read-out: % 7 d (effect in %, caterpillars killed)
Protocol: as §1, with “maize” for “Chinese cabbage”, “(Zea mays)” for “(Brassica pekinensis)”, “caterpillars” for “larvae”, “army worm (Spodoptera frugiperda).” for “mustard beetle (Phaedon cochleariae).”, “caterpillars” for “beetle larvae”

Botrytis cinerea = experiment: Botrytis test (bean)/protective; format: in vivo; settings: application rate 500 ppm, protective, evaluation 2 days after inoculation
Protocol: [table] To produce a suitable preparation of active compound, 1 part by weight of active compound is mixed with the stated amounts of solvents and emulsifier, and the concentrate is diluted with water to the desired concentration. To test for protective activity, young plants are sprayed with the preparation of active compound at the stated application rate. After the spray coating has dried on, 2 small pieces of agar colonized by Botrytis cinerea are placed onto each leaf. The inoculated plants are placed in a dark chamber at about 20° C. and 100% relative atmospheric humidity. 2 days after the inoculation, the size of the infected areas on the leaves is evaluated. 0% means an efficacy which corresponds to that of the control, whereas an efficacy of 100% means that no infection is observed.

Row | SMILES | chromatographic logP ([1]; read-out: Physical data: logP) | pest or weed control at 500 g/ha [2] [%] | pest or weed control at 500 g/ha [3] [%] | also measured
1 | C=CCN(C)C(=O)/C=C/c1c(-c2ccc(Cl)cc2)nc2sc(C(F)(F)F)nn12 [Example 0067] | – | – | – | Efficacy in % (Sphaerotheca fuliginea): 90%; chromatographic logP ([1]; read-out: Physical data (logP)): 3.95
2 | O=C(/C=C/c1c(-c2cccc(Cl)c2)nc2sc(C(F)(F)F)nn12)N1CCOCC1 [Example 0142] | – | 100 | – | chromatographic logP ([1]; read-out: Physical data (logP)): 3.31
3 | CC(C)NC(=O)/C=C/c1c(-c2ccccc2Cl)nc2sc(C(F)(F)F)nn12 [Example 0148] | – | 83 | 100 | chromatographic logP ([1]; read-out: Physical data (logP)): 3.13
4 | O=C(/C=C/c1c(-c2ccccc2Cl)nc2sc(C(F)(F)F)nn12)NC1CC1 [Example 0152] | – | 100 | – | chromatographic logP ([1]; read-out: Physical data (logP)): 2.88
5 | O=C(/C=C/c1c(-c2ccccc2Cl)nc2sc(C(F)(F)F)nn12)NCC1CC1 [Example 0166] | – | 100 | – | chromatographic logP ([1]; read-out: Physical data (logP)): 3.26
6 | CC(NC(=O)/C=C/c1c(-c2ccccc2Cl)nc2sc(C(F)(F)F)nn12)c1ccccn1 (stereo not drawn) [Example 0203] | – | 83 | 100 | chromatographic logP ([1]; read-out: Physical data (logP)): 2.39
7 | CC(NC(=O)/C=C/c1c(-c2cccc(C(F)(F)F)c2)nc2sc(C(F)(F)F)nn12)c1ccccn1 (stereo not drawn) [Example 0416] | – | 100 | – | chromatographic logP ([1]; read-out: Physical data: log P): 3.03
8 | O=C(/C=C/c1c(-c2ccc(F)cc2Cl)nc2sc(C(F)(F)F)nn12)NC1CC1 [Example 0585] | – | 100 | 100 | chromatographic logP ([1]; read-out: Physical data: log P): 3.03
9 | CC(NC(=O)/C=C/c1c(-c2ccc(F)cc2Cl)nc2sc(C(F)(F)F)nn12)C(F)(F)F (stereo not drawn) [Example 0598] | – | 100 | 100 | chromatographic logP ([1]; read-out: Physical data: log P): 3.79
10 | O=C(/C=C/c1c(-c2ccc(F)cc2Cl)nc2sc(C(F)(F)F)nn12)NCC(F)(F)F [Example 0603] | – | – | 100 | chromatographic logP ([1]; read-out: Physical data: log P): 3.51
11 | O=C(/C=C/c1c(-c2ccc(F)cc2Cl)nc2sc(C(F)(F)F)nn12)NCCC(F)(F)F [Example 0604] | – | – | 100 | chromatographic logP ([1]; read-out: Physical data: log P): 3.51
12 | C[C@@H](NC(=O)/C=C/c1c(-c2ccc(F)cc2Cl)nc2sc(C(F)(F)F)nn12)C(F)(F)F [Example 0608] | – | – | 100 | chromatographic logP ([1]; read-out: Physical data: log P): 3.77
13 | O=C(/C=C/c1c(-c2ccc(F)cc2Cl)nc2sc(C(F)(F)F)nn12)NCC(F)(F)C(F)(F)F [Example 0610] | – | – | 100 | chromatographic logP ([1]; read-out: Physical data: log P): 3.97
14 | O=C(/C=C/c1c(-c2ccc(F)cc2Cl)nc2sc(C(F)(F)F)nn12)Nc1ccc(F)cc1 [Example 0624] | – | – | 100 | chromatographic logP ([1]; read-out: Physical data: log P): 4.17
15 | COc1ccc(-c2nc3sc(C(F)(F)F)nn3c2/C=C/C(=O)NC(C)(C)C)cc1OC [Example 0654] | 3.37 | 100 | – | –
16 | O=C(/C=C/c1c(-c2ccccc2Cl)nc2sc(C(F)(F)Cl)nn12)NC1CC1 [Example 0728] | 3.07 | 100 | 100 | –
17 | CC(NC(=O)/C=C/c1c(-c2cc(Cl)ccc2Cl)nc2sc(C(F)(F)F)nn12)C(F)(F)F (stereo not drawn) [Example 0729] | – | 100 | – | –
18 | O=C(/C=C/c1c(-c2ccccc2Cl)nc2sc(C(F)(F)Cl)nn12)Nc1ccc(F)cc1 [Example 0767] | 4.19 | – | 100 | –
19 | CCC(CC)NC(=O)/C=C/c1c(-c2ccccc2Cl)nc2sc(C(F)(F)Cl)nn12 [Example 0781] | 3.95 | – | 100 | –
20 | CCN(CC)C(=O)/C=C/c1c(-c2ccccc2)nc2sc(C(F)(F)F)nn12 [Example 0912] | – | – | – | Efficacy in % (Sphaerotheca fuliginea): 95%; Efficacy in % (Botrytis cinerea): 93%
21 | CC(C)CN(C)C(=O)/C=C/c1c(-c2ccccc2)nc2sc(C(F)(F)F)nn12 [Example 0913] | – | – | – | Efficacy in % (Sphaerotheca fuliginea): 90%

The next lines start with results.

Row | chromatographic logP ([1]; read-out: Physical data: logP) | SMILES | pest or weed control at 500 g/ha [2] [%] | pest or weed control at 500 g/ha [3] [%] | also measured
22 | 3.89 | CCC(CC)NC(=O)/C=C/c1c(-c2ccc(F)cc2Cl)nc2sc(C(F)(F)F)nn12 [Example 0638] | – | 100 | –
23 | 3.36 | CC(C)NC(=O)/C=C/c1c(-c2ccccc2Cl)nc2sc(C(F)(F)Cl)nn12 [Example 0724] | 100 | 100 | –
24 | 3.67 | CCC(C)NC(=O)/C=C/c1c(-c2ccccc2Cl)nc2sc(C(F)(F)Cl)nn12 (stereo not drawn) [Example 0733] | – | 100 | –
25 | 4.06 | CCCC(C)NC(=O)/C=C/c1c(-c2ccccc2Cl)nc2sc(C(F)(F)Cl)nn12 (stereo not drawn) [Example 0734] | 100 | 100 | –
26 | 3.97 | CC(C)C(C)NC(=O)/C=C/c1c(-c2ccccc2Cl)nc2sc(C(F)(F)Cl)nn12 (stereo not drawn) [Example 0740] | – | 100 | –
27 | 3.8 | CC(NC(=O)/C=C/c1c(-c2ccccc2Cl)nc2sc(C(F)(F)Cl)nn12)C(F)(F)F (stereo not drawn) [Example 0741] | – | 100 | –
28 | 4.13 | CC(NC(=O)/C=C/c1c(-c2cc(Cl)ccc2Cl)nc2sc(C(F)(F)F)nn12)C(F)(F)F (stereo not drawn) [Example 0792] | – | 100 | –
29 | 3.26 | CC(NC(=O)/C=C/c1c(-c2ccc(Cl)c(Cl)c2)nc2sc(C(F)(F)F)nn12)c1ccccn1 (stereo not drawn) [Example 0793] | 100 | – | –
